# In patent US8609362B2, “G-proteins” (Givaudan SA, priority 2002, dated 2013):
# Tests used:
# Format in all cases: cell-based
# [1] = target: T1, human TAS2R44 (Homo sapiens, UniProt P59538); experiment: Fluo-4 calcium assay, tetracycline-inducible cells stably expressing human TAS2R44 and G16gust44; conditions: ligand 10 μM
# T1 construct: expressed in transfected cells
# T1 sequence (P59538 1-309): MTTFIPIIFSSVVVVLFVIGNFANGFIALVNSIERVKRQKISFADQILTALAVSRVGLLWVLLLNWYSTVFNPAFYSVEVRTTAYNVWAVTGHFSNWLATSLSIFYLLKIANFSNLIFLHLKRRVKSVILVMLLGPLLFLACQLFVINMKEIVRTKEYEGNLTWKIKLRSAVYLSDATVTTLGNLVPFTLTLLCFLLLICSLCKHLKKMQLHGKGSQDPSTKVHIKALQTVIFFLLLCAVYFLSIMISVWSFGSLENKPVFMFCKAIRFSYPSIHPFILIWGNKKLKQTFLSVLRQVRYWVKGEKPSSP
# Excerpt: (§1) The following results were obtained:
# [2] = tested on: G-protein only; experiment: Fluo-4 calcium assay, G-protein only control (TAS2R44 cell line); conditions: Gα16gustducin44, ligand 10 μM
# Excerpt: as §1
# [3] = tested on: G-protein only; experiment: Fluo-4 calcium assay, G-protein only control (TAS2R43 cell line); conditions: Gα16gustducin44, ligand 10 μM
# Excerpt: as §1
# [4] = target: T2, human TAS2R43 (Homo sapiens, UniProt P59537); experiment: Fluo-4 calcium assay, tetracycline-inducible cells stably expressing human TAS2R43 and G16gust44; conditions: ligand 10 μM
# T2 construct: expressed in transfected cells
# T2 sequence (P59537 1-309): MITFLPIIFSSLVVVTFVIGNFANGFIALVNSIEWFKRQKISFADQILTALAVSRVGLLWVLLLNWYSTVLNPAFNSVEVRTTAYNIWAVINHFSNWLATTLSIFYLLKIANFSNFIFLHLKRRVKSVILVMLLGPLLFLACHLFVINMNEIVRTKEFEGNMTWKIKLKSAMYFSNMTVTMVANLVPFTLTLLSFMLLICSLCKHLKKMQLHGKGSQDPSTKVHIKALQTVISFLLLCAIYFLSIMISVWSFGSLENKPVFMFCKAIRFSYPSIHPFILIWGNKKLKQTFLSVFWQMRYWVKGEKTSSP
# Excerpt: as §1
smiles,measurement,setting,value
COc1cccc2c1cc([N+](=O)[O-])c1c(C(=O)O)cc3c(c12)OCO3 [aristolochic acid],increase in mean fluorescence over baseline following ligand addition,"[1]; G-protein + human TAS2R44, Gα16gustducin44",17254 RFUs
same,fluorescence signal (in words),"[1]; HEK293 T-Rex cells, TAS2R44, G16-gustducin 44",robust fluorescence signal
same,increase in mean fluorescence over baseline following ligand addition,[2],5700 RFUs
same,increase in mean fluorescence over baseline following ligand addition,[3],3955 RFUs
same,increase in mean fluorescence over baseline following ligand addition,"[4]; G-protein + human TAS2R43, Gα16gustducin44",26766 RFUs
same,fluorescence signal (in words),"[4]; HEK293 T-Rex cells, TAS2R43, G16-gustducin 44",robust fluorescence signal
